ChEMBL document CHEMBL6103618, “Discovery of Novel Oxazolo[4,3-f]purine Derivatives as Antitumor Agents through PPIA Interaction” (J Med Chem, 2025)
Activity calls are given as the source filed them. No cut-off for these calls is given here.

Experiments:
[1] = tested on: HCT-116; experiment: Anti-invasion activity in human HCT-116 cells incubated for 24 hrs by transwell assay; assay type: functional, cell-based; conditions: dose 0.3-1.2 µM
[2] = tested on: HCT-116; experiment: Induction of cell cycle arrest in human HCT-116 cells assessed as accumulation at G2 phase at 1.2 uM incubated for 48 hrs by PI staining based flow cytometry (reference value: 6.08 %); assay type: functional
[3] = tested on: HCT-116; experiment: Induction of apoptosis in human HCT-116 cells assessed as decrease in Bcl-2 level at 1.2 uM in presence of NAC by Western blot analysis; assay type: functional, cell-based
[4] = target: Peptidyl-prolyl cis-trans isomerase A (Homo sapiens, UniProt P62937); experiment: Binding affinity to PPIA in human HCT-116 cells assessed as increase in thermal stability at 16 uM incubated for 30 mins followed by heat exposure at 40 to 60 degreeC for 3 mins by CETSA; assay type: cell-based; conditions: time 33.0 min
Chain of Peptidyl-prolyl cis-trans isomerase A (P62937 whole entry, looked up): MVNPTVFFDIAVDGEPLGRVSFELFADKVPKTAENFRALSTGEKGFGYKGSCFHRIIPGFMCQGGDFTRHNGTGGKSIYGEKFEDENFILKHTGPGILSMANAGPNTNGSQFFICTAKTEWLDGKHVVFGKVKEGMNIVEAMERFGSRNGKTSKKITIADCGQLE

[5] = tested on: HCT-116; experiment: Induction of apoptosis in human HCT-116 cells assessed as decrease in p-JNK level by Western blot analysis; assay type: functional, cell-based; conditions: dose 0.3-1.2 µM
[6] = tested on: HCT-116; experiment: Induction of intracellular ROS generation in human HCT-116 cells harboring siPPIA-3 at 1.2 uM by flow cytometry (reference value: 15.4 %); assay type: functional
[7] = tested on: CT26; experiment: Antitumor activity against mouse CT26 cells implanted in BALB/c mouse assessed as decrease in Ki67 level at 15 to 45 mg/kg, ip qd treated for 14 days by IHC analysis; assay type: functional, organism-based; conditions: dose 15-45 mg/kg, time 14.0 day

C=C(C(=O)OC)N1c2nc(Cl)nc(Cl)c2N2C(c3ccccc3F)OC(C(=O)OCC)(C(=O)OCC)C12 (racemic)
Activity [1]: Dose-dependent-effect
Activity [2]: 2.78%
Activity [3]: inactive
Activity [4]: Active; Activity Similar To Csa
Activity [5]: Dose-dependent-effect
Activity [6]: 16.8%
Activity [7]: Active
